Experimental data as given in patent publication US20240384250A1, “FIBROBLAST GROWTH FACTOR 23 MODULATING COMPOUNDS” (THE UAB RESEARCH FOUNDATION, priority 2021, published 2024).

Assays:
FGF23 = molecular target: T1, FGF23 (Homo sapiens, UniProt Q9GZV9); test: Plate-based binding assay, FGF23 coated, FLAG-sKL detected with anti-FLAG HRP; conditions: 2 mM glucosamine or 12.5 ng/ml tunicamycin for 48 hours
T1 construct: purchased R&D Systems 2604FG025/CF (human) or 2629FG025/CF (mouse)
Method: (§1) Proteins were coated on 96-well plates (MaxiSorp; 439454, Thermo Fisher Scientific), and proteins were added to wells in 100 μl of enzyme-linked immunosorbent assay (ELISA) coating buffer (E107, Bethyl Laboratories) with a lid placed overtop and incubated at 4° C. overnight. Plates were washed 5× with 350 μl of assay buffer (50 mM Tris [pH 7.4], 200 mM NaCl, 0.01% Tween 20) on a 50 TS microplate washer (BioTek). Plates were blocked for 1 hour in 200 μl of assay buffer with 0.5% BSA. Plates were washed as before, and proteins were incubated on plates in 100 μl of assay buffer with 0.5% BSA. Proteins or heparin was incubated in orders described in the respective figure legends. Assays using FLAG-tag-based detection were incubated with anti-FLAG coupled to HRP at 1:20,000, and assays using Fc detection were incubated with anti-human Fc coupled to HRP at 1:10,000. […] Reactions were stopped with ELISA stop solution (E115, Bethyl Laboratories) and analyzed using the Synergy HI plate reader (BioTek) at 450 nm wavelength. […] As a control to remove background absorbance values, wells were coated with an equal amount of BSA to match the amount of protein coated in experimental wells and treated the same as experimental wells. […]

FGF2 binding to FGFR1c = molecular target: T2, FGF2 binding to FGFR1c (Homo sapiens, UniProt P11362); test: Plate-based binding of paracrine FGF to Fc-FGFR1c with heparin and/or sKL; conditions: absence of sKL
T2 construct: a chimeric protein consisting of the FGFR1 ectodomain and the Fc region of a human IgG; purchased R&D Systems 233-FB/CF; 658FR050
T2 sequence (P11362 22-376 limits assumed): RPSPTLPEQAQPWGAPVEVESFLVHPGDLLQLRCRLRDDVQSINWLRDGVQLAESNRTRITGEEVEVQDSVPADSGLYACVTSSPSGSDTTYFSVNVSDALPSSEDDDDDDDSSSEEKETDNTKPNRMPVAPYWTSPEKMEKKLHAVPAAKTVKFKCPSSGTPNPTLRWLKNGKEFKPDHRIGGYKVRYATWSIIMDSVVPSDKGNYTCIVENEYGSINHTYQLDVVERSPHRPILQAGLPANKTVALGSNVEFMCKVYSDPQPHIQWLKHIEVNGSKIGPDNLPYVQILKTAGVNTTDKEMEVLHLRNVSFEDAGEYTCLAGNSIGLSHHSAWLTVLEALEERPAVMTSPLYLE
Method: Proteins were coated on 96-well plates (MaxiSorp; 439454, Thermo Fisher Scientific), and proteins were added to wells in 100 μl of enzyme-linked immunosorbent assay (ELISA) coating buffer (E107, Bethyl Laboratories) with a lid placed overtop and incubated at 4° C. overnight. Plates were washed 5× with 350 μl of assay buffer (50 mM Tris [pH 7.4], 200 mM NaCl, 0.01% Tween 20) on a 50 TS microplate washer (BioTek). Plates were blocked for 1 hour in 200 μl of assay buffer with 0.5% BSA. Plates were washed as before, and proteins were incubated on plates in 100 μl of assay buffer with 0.5% BSA. Proteins or heparin was incubated in orders described in the respective figure legends. Assays using FLAG-tag-based detection were incubated with anti-FLAG coupled to HRP at 1:20,000, and assays using Fc detection were incubated with anti-human Fc coupled to HRP at 1:10,000. Plates were washed as above, and 100 μl of 3,3′,5,5′-tetramethylbenzidine (TMB) substrate (E102, Bethyl Laboratories) was added for 15 to 20 minutes until positive wells developed a dark blue color. Reactions were stopped with ELISA stop solution (E115, Bethyl Laboratories) and analyzed using the Synergy HI plate reader (BioTek) at 450 nm wavelength. […] As a control to remove background absorbance values, wells were coated with an equal amount of BSA to match the amount of protein coated in experimental wells and treated the same as experimental wells. To study the effects of sKL on the binding between paracrine FGFs and FGFRs, plates were run as above except coated with paracrine FGFs. Fc-FGFR1 was preincubated with sKL or vehicle for 60 minutes, and then the combination was added to wells and the assay was run as before.

[1] = test system: phosphorylated ERK in HEK293T cells; test: ERK phosphorylation in serum-starved HEK293 cells (Western blotting); type: cell-based, human; conditions: FGF 1.1 nM for 10 minutes, absence of sKL
Method: The sample (20 μl) was loaded onto Mini-PROTEAN TGX Precast Gel 4-20% for experiments with <9 samples (4568094, Bio-Rad) or Criterion TGX Precast Gel 4-20% (5678094, Bio-Rad) for experiments with >9 samples. Gels were run in 1× Tris/Glycine/SDS buffer (1610732, Bio-Rad) at 150 V and stopped when the sample dye reached the end of the gel. Gels were removed and electrotransferred via a semi-dry cassette (1703940, Bio-Rad) in I× Tris/Glycine buffer (1610734, Bio-Rad) with 20% methanol. Gels were transferred onto polyvinylidene diflouride membranes (IPVH00010, Millipore) at 20 V for 1 hour. Membranes were then blocked in 5% dried milk with 0.5% Tween 20 diluted in Tris-buffered saline (TBST; pH 7.5) for 1 hour and probed with antibodies against specific antigens at 1:1000 in TBST with 5% dried milk. Blots were washed 3× for 5 minutes in TBST and probed with HRP-coupled secondary antibodies against specific species at 1:10,000 in TBST with 5% dried milk. Membranes were imaged on the SRX-101A X-ray film developer (Konica Minolta).
To determine the cellular activity of paracrine FGFs, the activation/phosphorylation of ERK in HEK293 cells after treatment was studied. […] Twenty microliters of samples was loaded onto 12% SDS-PAGE gels and analyzed using Western blotting for total and phosphorylated ERK.

FGFR1c = molecular target: T3, FGFR1c (Homo sapiens, UniProt P11362); test: Plate-based binding assay, FGFR1c coated, FLAG-sKL detected with anti-FLAG HRP; conditions: 12.5 ng/ml tunicamycin for 48 hours
T3 construct: Fc-coupled FGFR ectodomains were immobilized on protein A/G beads; purchased R&D Systems 658FR050
Method: as §1

T1 sequence (Q9GZV9 25-251, species assumed): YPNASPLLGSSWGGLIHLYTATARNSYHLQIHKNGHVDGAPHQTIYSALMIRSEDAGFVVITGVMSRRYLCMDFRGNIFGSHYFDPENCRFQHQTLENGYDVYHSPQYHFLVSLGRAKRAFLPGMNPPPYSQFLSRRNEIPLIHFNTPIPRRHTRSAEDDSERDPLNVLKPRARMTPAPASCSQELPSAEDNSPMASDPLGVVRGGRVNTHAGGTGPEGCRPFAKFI

| Molecule | FGF23 binding affinity of sKL in media of inhibitor-treated HEK293 cells (FGF23) | FGF2 binding to FGFR1c (FGF2 binding to FGFR1c) | ERK phosphorylation induced by FGF [1] | FGFR1c binding of sKL in media of inhibitor-treated HEK293 cells (FGFR1c) |
| --- | --- | --- | --- | --- |
| N[C@H]1C(O)O[C@H](CO)[C@@H](O)[C@@H]1O (some centres unmarked) [Glucosmine, glucosamine, reference compound] | had an effect |  |  |  |
| FGF2: recombinant human FGF2 from R&D Systems |  | FGFR1c bound FGF2 | induced ERK phosphorylation |  |
| tunicamycin [reference compound] | much higher FGF23 binding affinity |  |  | did not affect the FGFR1c binding |
